Assay results taken from patent US12331056B2, “SHP2 phosphatase inhibitors and methods of use thereof” (Relay Therapeutics, Inc., priority 2018, dated 2025).
pIC50: −log10 of the molar value. Where a name gives a salt, the structure may show the parent alone.

molecular target: T1, SHP2 (Homo sapiens, UniProt Q06124); assay: SHP2 allosteric inhibition assay (DiFMUP prompt fluorescence); format: biochemical; conditions: 0.25 nM SHP2 activated with 0.5 μM peptide IRS1_pY1172(dPEG8)pY1222; substrate DiFMUP 100 μM
T1 sequence (Q06124 1-593): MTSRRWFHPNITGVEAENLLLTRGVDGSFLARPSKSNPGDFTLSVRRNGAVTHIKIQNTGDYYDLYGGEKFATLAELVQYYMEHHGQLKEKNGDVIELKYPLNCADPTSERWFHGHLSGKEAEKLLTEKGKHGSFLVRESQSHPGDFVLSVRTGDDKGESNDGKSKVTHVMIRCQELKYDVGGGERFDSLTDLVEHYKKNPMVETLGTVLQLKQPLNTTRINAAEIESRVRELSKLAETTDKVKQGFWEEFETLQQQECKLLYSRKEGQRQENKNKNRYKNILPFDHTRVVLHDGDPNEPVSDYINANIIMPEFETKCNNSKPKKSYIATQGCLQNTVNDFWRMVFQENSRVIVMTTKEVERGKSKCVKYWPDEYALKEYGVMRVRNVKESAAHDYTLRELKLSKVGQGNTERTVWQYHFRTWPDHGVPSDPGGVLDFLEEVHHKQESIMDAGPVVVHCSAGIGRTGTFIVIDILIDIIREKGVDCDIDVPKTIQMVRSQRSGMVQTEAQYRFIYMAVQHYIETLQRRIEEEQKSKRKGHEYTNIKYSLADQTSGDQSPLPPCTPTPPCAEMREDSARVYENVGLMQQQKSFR

pIC50 | SMILES
< 5.00 | C[C@H](O)c1nc(Sc2ccnc(Cl)c2Cl)cnc1N1CCC2(CC1)Cc1ccccc1[C@H]2N (single isomer, unassigned) [Example 260]
5.00 to 6.00 | N[C@@H]1c2ccccc2C[C@]12CC[C@H](c1cnc(Sc3ccnc(Cl)c3Cl)cn1)CC2 (single isomer, unassigned) [Example 275, (1s, 3′S, 4R)-4-{5-[(2,3-dichloropyridin-4-yl)sulfanyl]pyrazin-2-yl}-1′,3′-dihydrospiro[cyclohexane-1,2′-inden]-3′-amine]
> 7.30 | Cc1cnc2sc(N3CCC4(CC3)Cc3ccccc3[C@H]4N)nn12 [Example 293, (S)-1′-(5-methylimidazo[2,1-b][1,3,4]thiadiazol-2-yl)-1,3-dihydrospiro[indene-2,4′-piperidin]-1-amine]
< 5.00 | Nc1nccc(Sc2cnc(N3[C@@H]4CC[C@H]3C[C@]3(Cc5ccccc5[C@H]3N)C4)cn2)c1Cl [Example 231]
6.00 to 7.30 | N[C@H]1c2ccccc2CC12CCN(c1cnc3c(-c4ccnc(Cl)c4F)n[nH]c3n1)CC2 (single isomer, unassigned) [Example 66]
6.00 to 7.30 | NC1c2ccccc2CC12CCC(c1cnc(SCC3CC3)cn1)CC2 (single isomer, unassigned) [Example 284, (1s, 1′R, 4S)-4-(5-((cyclopropylmethyl)thio)pyrazin-2-yl)-1′,3′-dihydrospiro[cyclohexane-1,2′-inden]-1′-amine]
6.00 to 7.30 | Nc1nccc(Sc2ncc(N3CCC4(CC3)Cc3ccccc3[C@H]4N)cn2)c1Cl [Example 63]
5.00 to 6.00 | N[C@@H]1c2ccccc2C[C@]12CC[C@@H](c1cnc3c(N4CCCc5ncccc54)n[nH]c3n1)CC2 (single isomer, unassigned) [Example 191, (1r, 3′S, 4S)-4-[3-(1,2,3,4-tetrahydro-1,5-naphthyridin-1-yl)-1H-pyrazolo[3,4-b]pyrazin-6-yl]-1′,3′-dihydrospiro[cyclohexane-1,2′-inden]-3′-amine]
6.00 to 7.30 | Cc1nc(N2CCC3(CC2)Cc2ccccc2[C@@H]3N)c(CO)nc1-c1cccc(Cl)c1Cl (single isomer, unassigned) [Example 19]
> 7.30 | Nc1nccc(Sc2cnc(N3[C@@H]4CC[C@H]3C[C@]3(C4)Oc4ccccc4[C@H]3N)cn2)c1Cl [Example 232]
< 5.00 | N[C@@H]1c2ccccc2C[C@@]12C[C@H]1CC[C@@H](C2)N1c1cnc2c(N3CCCc4ncccc43)n[nH]c2n1 [Example 227]
6.00 to 7.30 | Cn1cnc2c(N3CCC4(CC3)Cc3ccccc3[C@H]4N)nccc21 [Example 184]
5.00 to 6.00 | N#Cc1cccc2c1CC1(CCN(c3cnc4c(N5CCCc6ncccc65)n[nH]c4n3)CC1)[C@H]2N (single isomer, unassigned) [Example 116]
> 7.30 | C[C@H](C(=O)N1CCC2(CC1)Cc1ccccc1[C@H]2N)c1ccc(F)cc1 (single isomer, unassigned) [Example 290]

SMILES | pIC50
N[C@@H]1c2ccccc2CC12CCN(c1ccc(SCC3CC3)nc1)CC2 [Example 272, (S)-1′-(6-((cyclopropylmethyl)thio)pyridin-3-yl)-1,3-dihydrospiro[indene-2,4′-piperidin]-1-amine formate] | > 7.30
CC(C)Sc1cnc(N2CCC3(CC2)Cc2ccccc2[C@H]3N)cn1 [Example 248, (3S)-1′-[5-(propan-2-ylsulfanyl)pyrazin-2-yl]-1,3-dihydrospiro[indene-2,4′-piperidin]-3-amine] | > 7.30
